Test results as given in US20190345202A1, “ANDROGEN RECEPTOR ANTISENSE OLIGONUCLEOTIDES” (OliPass Corporation, priority 2016, published 2019).
[C(1O2)] = PNA monomer with modified cytosine C(1O2), structure; [A(5)] = PNA monomer with modified adenine A(5), structure; {Fethoc} = Fethoc group on PNA N-terminus; {NH2} = C-terminal amide

Experiments:
[1] = tested on: androgen receptor; test: AR IHC of skin samples after topical administration in mice; format: in vivo, mouse; conditions: topical 1, 5, or 25 fM, skin samples Day 30
Text: [AR IHC of Skin Sample] Following the shaving in Day 21, the mice received a single topical administration of either vehicle or “ASO 1” according to the group. In Day 24, the skin of the area with hair removal was sampled for immunohistochemistry (IHC) analysis against androgen receptor. The skin samples were cryo-sectioned and subjected to immunostaining in series with a primary anti-AR antibody (Cat. No. sc-816, Santa Cruz) at 1:100 dilution, with a secondary anti-IgG (Cat No. BA-1100, Vector) at 1:200 dilution, and then with Dylight 594-steptavidin (Cat No. SA-5594, Vector, Calif., USA) at 1:200 dilution for red fluoresence tagging. The IHC images were captured on an Olympus fluorescence microscope for changes in the AR expression level upon topical treatment with “ASO 1”.
[AR Immunohistochemistry of Skin Samples] After the hair cut in Day 27, The animals topically received further either vehicle or “ASO 10” at 1, 5, or 25 fM in Days 27 and 29. Skin samples of the back were collected in Day 30 for immunohistochemical analysis against androgen receptor. The skin samples were subjected to immunostaining against androgen receptor as described in “Example 7”. IHC images were captured on a Zeiss slide scanner. FIG. 14B is a representative set of AR IHC images. […] It would be difficult to clearly state that the AR expression in hair follicles decreased in the treatment groups due to the marked increases in the number of hair follicles in the treatment groups.

[2] = tested on: human AR mRNA; test: qPCR (TaqMan probe) of AR mRNA level in MCF7 cells; format: cell-based; conditions: 1 zM to 1 aM, 24 hours
Text: The qPCR reaction was monitored with a TaqMan probe of [(5′→3′) TTTCTTCAG-ZEN-CTTCCGGGCTC-3IABkFQ (SEQ ID NO: 19)].

[3] = tested on: AR protein; test: AR IHC of tissues of mice subcutaneously administered; format: in vivo, mouse; conditions: subcutaneous, dose increased from 0.01 to 0.1 pmole/Kg, 2× per week for 4 weeks, male C57BL/6 mice
Text: 12 weeks old male C57BL/6 mice were randomly assigned to 3 groups of negative control (no ASO treatment), 0.01 pmole/Kg “ASO 10” and 0.1 pmole/Kg “ASO 10”. (3 animals per group) Mice subcutaneously received either vehicle or ASO dissolved in vehicle (PBS) 2× per week for 4 weeks according to the dosing group. Three days post the final dosing, the animals were anesthetized with zoletil/rompun and subjected to tissue or organ sampling for AR IHC by paraffin blolck.
The AR protein was probed in series with a primary antibody (Cat. No. sc-816, Santa Cruz) at 1:100 dilution, a secondary anti-rabbit IgG (Cat. No. BA-1100, VECTOR) at 1:200 dilution, and Dylight 594-Streptavidin (Cat. No. SA-5594, VECTOR) at 1:200. Nucleus was stained with DAPI. IHC fluorescence images were captured on a Zeiss slide scanner.

[4] = tested on: human AR pre-mRNA; test: AR nested PCR for skipping of AR exon 5 in MCF7 cells; format: cell-based; conditions: 3 aM to 3 fM, 3 hours
Description: “ASO 5” was evaluated by AR nested PCR for its ability to induce the skipping of AR “exon 5” in MCF7 cells (Cat. Number: HTB-22, ATCC). The employed procedures are detailed as follows.
[Cell Culture & ASO Treatment] MCF7 cells were grown in EMEM medium supplemented with 10% FBS, 1% streptomycin/penicillin, and 0.01 mg/ml bovine insulin under 5% CO2 atmosphere at 37° C. Cells were sub-cultured in 60 mm culture dish prior to treatment with “ASO 5” at 3 aM to 3 fM.
[RNA Extraction] MCF7 cells were incubated with or without “ASO 5” for 3 hours. Total RNA was extracted from cells in 60 mm culture dish using “Universal RNA Extraction Kit” (Cat. No. 9767, Takara) according to the manufacturer's instructions [cDNA Synthesis by One-step PCR]
[Nested PCR Amplification] Throughout the amplification process, was used a unique amplification technique (touch up as increasing annealing temperature per cycle) that worked efficiently and specifically over a temperature range, rather than at one specific annealing temperature (i.e. conventional PCR method). […]
[Identification of Exon Skipping Products] […] The bands of target size were collected and analyzed by Sanger Sequencing. […]

[5] = tested on: full-length AR protein; test: Western blot of AR protein in MCF7 cells; format: cell-based, human; conditions: 10 zM to 30 aM
Description: 4 culture dishes were used for 4 negative controls. 48 hours later, cells were washed 2 times with cold PBS, and then subjected to lysis with 200 μL 1× cell lysis buffer (Cat. No. 9803, Cell Signaling Tech) supplemented with 1× protease inhibitor (Cat. No. P8340, Sigma). The lysates were collected in 1.5 ml e-tube. 200 μL of each lysate was mixed with 100 μL 3× sample buffer, and boiled for 5 min at 100 ? . 20 μL of each lysate (12 lysates in total). 4 negative controls and 8 ASO treatment samples) was subjected to electrophoretic separation on a 8% SDS-PAGE gel, and transferred onto a 0.2 μm PVDF membrane. The membrane was probed with anti-AR antibody (Cat. No. 5153, Cell Signaling Tech) and anti-β-actin antibody (Cat. No. sc4778, Santa Cruz). FIG. 10A provides the AR Western blot data obtained therefrom. Multiple (negative) control samples were used to overcome technical artifacts of western blot procedures.

Substance | number of hair follicles vs negative control group (IHC images) [1] | AR expression in the muscle layer underneath the dermis (IHC) ([1]; most notable at 5 fM) | decrease of relative expression level of exons 4-6 (TaqMan) [2] [%] | AR expression in epidermis distal to the injection site, liver, testis and prostate (IHC) [3] | exon skipping (AR mRNA splice variants by nested PCR and Sanger sequencing) [4] | AR band intensity vs neighboring lysates without ASO treatment [5]
Fethoc-C(1O2)TT-A(5)CC-A(5)GG(6)-CA(5)A-NH2 (antisense CTTACCAGGCAA; N-Fethoc, C-terminal amide, chemistry not fully specified) [ASO 10] | increased markedly | markedly decreased | 50 to 70 | markedly decreased | – | –
Fethoc-C(1O2)TT-A(5)CC-A(5)GG-C(1O2)AA(5)-G-NH2 (antisense CTTACCAGGCAAG; all peptide nucleic acid (PNA), [C(1O2)] at 1, 10, [A(5)] at 4, 7, 12, 5' {Fethoc}, 3' {NH2}; peptide nucleic acid, written N to C terminus) [ASO 5] | – | – | – | – | induce the skipping of “exon 5”, “exons 4-5”, and “exons 4-6” | considerably weaker
